Experimental data from ChEMBL document CHEMBL3351272, “Sequential synthesis of amino-1,4-naphthoquinone-appended triazoles and triazole-chromene hybrids and their antimycobacterial evaluation” (Eur J Med Chem, 2014).

Tested on: Mycobacterium tuberculosis
Assay: Antimycobacterial activity against Mycobacterium tuberculosis H37Rv assessed as growth inhibition by microdilution AlamarBlue broth assay
Assay type: functional, organism-based

SMILES | IC50 [µM] | IC90 [µM] | MIC [µM]
N#CCn1cc(CN(C2=CC(=O)c3ccccc3C2=O)c2ccccc2Cl)nn1 | 11.2 | 25.9 | 50
N#CCn1cc(CN(C2=CC(=O)c3ccccc3C2=O)c2ccc(F)cc2)nn1 | 2.81 | 6.13 | 15
COc1cccc(N(Cc2cn(CC#N)nn2)C2=CC(=O)c3ccccc3C2=O)c1 | 16.3 | 25.5 | 50
Cc1ccccc1N(Cc1cn(CC#N)nn1)C1=CC(=O)c2ccccc2C1=O | 10.6 | 19.8 | 50
N#CCn1cc(CN(C2=CC(=O)c3ccccc3C2=O)c2ccccc2)nn1 | 9.95 | 21.9 | 25
CCOC(=O)Cn1cc(CN(C2=CC(=O)c3ccccc3C2=O)c2ccc(C)cc2)nn1 | 11.9 | 27.9 | 50
CCOC(=O)Cn1cc(CN(C2=CC(=O)c3ccccc3C2=O)c2ccc(Br)cc2)nn1 | 8.46 | 16.4 | 25
CCOC(=O)Cn1cc(CN(C2=CC(=O)c3ccccc3C2=O)c2ccc(Cl)cc2)nn1 | 3.28 | 7.86 | 25
CCOC(=O)Cn1cc(CN(C2=CC(=O)c3ccccc3C2=O)c2ccc(F)cc2)nn1 | 17.2 | 36.5 | 50
CCOC(=O)Cn1cc(CN(C2=CC(=O)c3ccccc3C2=O)c2cccc(OC)c2)nn1 | 18.6 | 27.7 | 50
CCOC(=O)Cn1cc(CN(C2=CC(=O)c3ccccc3C2=O)c2ccccc2Cl)nn1 | 18.3 | 36.5 | 50
C=CCn1cc(CN(C2=CC(=O)c3ccccc3C2=O)c2ccc(Cl)cc2)nn1 | 21.6 | 45.1 | 50
C=CCn1cc(CN(C2=CC(=O)c3ccccc3C2=O)c2ccc(F)cc2)nn1 | 5.87 | 14.6 | 25
C=CCn1cc(CN(C2=CC(=O)c3ccccc3C2=O)c2cccc(OC)c2)nn1 | 24.9 | 36.4 | 50
C=CCn1cc(CN(C2=CC(=O)c3ccccc3C2=O)c2ccccc2C)nn1 | 15.3 | 34.3 | 50
C=CCn1cc(CN(C2=CC(=O)c3ccccc3C2=O)c2ccccc2Cl)nn1 | 6.38 | 12 | 25
C=CCn1cc(CN(C2=CC(=O)c3ccccc3C2=O)c2ccccc2)nn1 | 25.5 | 55.4 | 100
Cc1ccc(N(Cc2cn(Cc3ccccc3)nn2)C2=CC(=O)c3ccccc3C2=O)cc1 | 17 | 38.9 | 50
O=C1C=C(N(Cc2cn(Cc3ccccc3)nn2)c2ccc(Br)cc2)C(=O)c2ccccc21 | 28.7 | 47.9 | 100
O=C1C=C(N(Cc2cn(Cc3ccccc3)nn2)c2ccc(Cl)cc2)C(=O)c2ccccc21 | 2.58 | 15.1 | 25
COc1cccc(N(Cc2cn(Cc3ccccc3)nn2)C2=CC(=O)c3ccccc3C2=O)c1 | 24.9 | 36.4 | 50
O=C1C=C(N(Cc2cn(Cc3ccccc3)nn2)c2ccccc2Cl)C(=O)c2ccccc21 | 15.3 | 44.3 | 50

SMILES | IC50 [µM] | IC90 [µM] | MIC [µM]
O=C1C=C(N(Cc2cn(Cc3ccccc3)nn2)c2ccc(Cl)cc2Cl)C(=O)c2ccccc21 | 5.38 | 9.97 | 25
Cc1ccc(N(Cc2cn(CC(=O)c3ccccc3)nn2)C2=CC(=O)c3ccccc3C2=O)cc1 | 14 | 28.9 | 50
Cc1ccccc1N(Cc1cn(CC(=O)c2ccccc2)nn1)C1=CC(=O)c2ccccc2C1=O | 19.1 | 37.9 | 50
O=C(Cn1cc(CN(C2=CC(=O)c3ccccc3C2=O)c2ccc(Cl)cc2Cl)nn1)c1ccccc1 | 13.3 | 27.9 | 50
Cc1ccc(N(Cc2cn(C3=CC(=O)c4ccccc4C3=O)nn2)C2=CC(=O)c3ccccc3C2=O)cc1 | 28.6 | 37.7 | 50
O=C1C=C(N(Cc2cn(C3=CC(=O)c4ccccc4C3=O)nn2)c2ccc(Br)cc2)C(=O)c2ccccc21 | 19.2 | 46.5 | 50
O=C1C=C(N(Cc2cn(C3=CC(=O)c4ccccc4C3=O)nn2)c2ccc(Cl)cc2)C(=O)c2ccccc21 | 7.2 | 16.5 | 25
Cc1ccc(N(Cc2cn(-c3cc4ccccc4oc3=N)nn2)C2=CC(=O)c3ccccc3C2=O)cc1 | 23.9 | 47.6 | 50
N=c1oc2ccccc2cc1-n1cc(CN(C2=CC(=O)c3ccccc3C2=O)c2ccc(F)cc2)nn1 | 8.57 | 17.7 | 25
COc1cccc(N(Cc2cn(-c3cc4ccccc4oc3=N)nn2)C2=CC(=O)c3ccccc3C2=O)c1 | 18.6 | 37.7 | 50
N=c1oc2ccccc2cc1-n1cc(CN(C2=CC(=O)c3ccccc3C2=O)c2ccccc2Cl)nn1 | 27.2 | 36.5 | 50
Cc1ccc(N(Cc2cn(-c3cc4ccccc4oc3=N)nn2)C2=CC(=O)c3ccccc3C2=O)c(C)c1 | 21.6 | 55.1 | 100
Cc1ccc(N(Cc2cn(-c3cc4cc(Br)ccc4oc3=N)nn2)C2=CC(=O)c3ccccc3C2=O)cc1 | 21.9 | 44.6 | 100
N=c1oc2ccc(Cl)cc2cc1-n1cc(CN(C2=CC(=O)c3ccccc3C2=O)c2ccc(F)cc2)nn1 | 3.18 | 9.86 | 25
Cc1ccc2oc(=N)c(-n3cc(CN(C4=CC(=O)c5ccccc5C4=O)c4ccccc4)nn3)cc2c1 | 18.6 | 27.7 | 50
O=C1C=C(N(Cc2cn(Cc3ccccc3)nn2)c2ccc(C(F)(F)F)cc2)C(=O)c2ccccc21 | 1.87 | 4.6 | 10
NCC[C@H](O)C(=O)N[C@@H]1C[C@H](N)[C@@H](O[C@H]2O[C@H](CN)[C@@H](O)[C@H](O)[C@H]2O)[C@H](O)[C@H]1O[C@H]1O[C@H](CO)[C@@H](O)[C@H](N)[C@H]1O [AMIKACIN] | – | 0.08 | 0.16
N[C@@H]1CONC1=O [CYCLOSERINE] | – | – | 25
CC[C@@H](CO)NCCN[C@@H](CC)CO [ETHAMBUTOL] | < 1.56 | – | 12.5
NNC(=O)c1ccncc1 [ISONIAZID] | – | 0.29 | 0.31
CCc1nc(N)nc(N)c1-c1ccc(Cl)cc1 [PYRIMETHAMINE] | 37.4 | 75 | 100

Tested on: Mycobacterium tuberculosis
Assay: Ratio of cycloserine IC50 to compound IC50 for Mycobacterium tuberculosis H37Rv assessed as growth inhibition by microdilution AlamarBlue broth assay
Assay type: functional

SMILES | Ratio IC50
O=C1C=C(N(Cc2cn(Cc3ccccc3)nn2)c2ccc(C(F)(F)F)cc2)C(=O)c2ccccc21 | 6

Tested on: Mycobacterium tuberculosis
Assay: Ratio of pyrimethamine IC50 to compound IC50 for Mycobacterium tuberculosis H37Rv assessed as growth inhibition by microdilution AlamarBlue broth assay
Assay type: functional

SMILES | Ratio IC50
O=C1C=C(N(Cc2cn(Cc3ccccc3)nn2)c2ccc(C(F)(F)F)cc2)C(=O)c2ccccc21 | 20
